Data as given in patent US20230286973A1, “PROTEIN SECRETION INHIBITORS” (KEZAR LIFE SCIENCES, priority 2020, published 2023).
Where two headings read alike, the source gives them in different places.

Legend:
[1] = Liver Microsome Stability Assay (mouse); conditions: mouse liver microsomes, with NADPH, 1.0 uM compound
Protocol: (§1) Stability of a compound was assessed in the presence of liver microsomes from various sources—mouse, rat, monkey and human liver microsomes. 1.0 uM compound, 0.4% DMSO in 0.1 M Potassium Phosphate with 1.0 mg/mL liver microsomes, were incubated at 37° C. with or without 1 mM NADPH. The samples were quenched at 0, and 30 minutes.

[2] = Liver Microsome Stability Assay (rat); conditions: rat liver microsomes, with NADPH, 1.0 uM compound
Protocol: as §1

[3] = tested on: multiple myeloma cell line NCI-H929; test: H929 Cell Viability Assay; type: cell-based, human; conditions: Homo sapiens, NCI-H929, 48 h, NCI-H929 cells, Celltiter-Glo
In short: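 A 48-hour compound treatment of cells in 10% FBS RPMI medium was followed by luciferase-based viability quantification.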

[4] = tested on: IL-2-FL/Gaussia Luciferase; test: Dox Induced IL2-FL-Gluc Assay; type: cell-based; conditions: for IC50: 24 hr Dox induction, 293FRT/TO cells, read-out: 24 hr Dox Inducible IL2FLGluc 293FRT/TO: Mean IC50; for 24 hr Dox Inducible IL2FLGluc 293FRT/TO: IL2/PD1: ratio of IL2FLGluc IC50 to PD1ssGluc IC50
In short: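 A hygromycin- and blasticidin-resistant 293 T-REx clone carrying inducible IL-2–Gaussia luciferase (full-length IL-2, residues 1-153) serves as the cell system. After overnight plating, the cells get test compounds together with doxycycline in DMSO/media and are incubated at 37° C, 5% CO2.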

[5] = Liver Microsome Stability Assay (monkey); conditions: monkey liver microsomes, with NADPH, 1.0 uM compound
Protocol: as §1

[6] = tested on: multiple myeloma cell line U266B1; test: U266 Cell Viability Assay; type: cell-based, human; conditions: Homo sapiens, U-266, 48 h, U266B1 cells, Celltiter-Glo
In short: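 After growth in serum-supplemented RPMI 1640, cells received serially diluted compound in DMSO/media and were kept 48 hours before a CellTiter-Glo luminescence readout.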

[7] = tested on: PD1-ss+10aa/Gaussia Luciferase; test: Dox-Induced PD1-ss-Gluc Assay; type: cell-based; conditions: 24 hr Dox induction, 293FRT/TO cells, read-out: 24 hr Dox Inducible PD1ssGluc 293FRT/TO: Mean IC50
In short: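 Stable Flp-In 293 T-REx cells carried a doxycycline-inducible construct of Gaussia luciferase fused to the PD1 signal sequence plus 10 amino acids. Cells were plated the day before, then treated with compound dilutions in DMSO/media containing doxycycline at 37 °C, 5% CO2.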

[8] = tested on: HER3-ss+4aa/Gaussia Luciferase; test: Dox-Induced Her3-ss-Gluc Assay; type: cell-based; conditions: 24 hr Dox induction, 293FRT/TO cells, read-out: 24 hr Dox Inducible Her3(ss + 4)Gluc 293FRT/TO: Mean IC50
In short: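 Doxycycline-inducible HER3 signal sequence+4aa/Gaussia luciferase construct, stably integrated in Flp-In 293 T-REx cells; compound dilutions applied with doxycycline at 37° C., 5% CO2.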

[9] = tested on: TNFα-FL/Gaussia Luciferase; test: Dox Induced TNFα-FL-Gluc Assay; type: cell-based; conditions: for IC50: 24 hr Dox induction, 293FRT/TO cells, read-out: 24 hr Dox Inducible TNFaFLGluc 293FRT/TO: Mean IC50; for 24 hr Dox Inducible TNFaFLGluc 293FRT/TO: TNF/PD1: ratio of TNFaFLGluc IC50 to PD1ssGluc IC50
In short: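 Hygromycin/blasticidin-selected Flp-In 293 T-REx cells, TNFα-FL/Gaussia luciferase fusion under T-REx control; overnight plating, then compound in DMSO/media with doxycycline at 37 °C, 5% CO2; stereo-undefined structures tested as mixtures.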

[10] = Liver Microsome Stability Assay (human); conditions: human liver microsomes, with NADPH, 1.0 uM compound
Protocol: as §1

Row | SMILES | Liver Microsome Stability (Multiple Species): Mouse - % Remaining after 30 min w/NADPH [1] [%] | Liver Microsome Stability (Multiple Species): Rat - % Remaining after 30 min w/NADPH [2] [%] | EC50 [3] [nM] | IC50 [4] [nM] | Liver Microsome Stability (Multiple Species): Monkey - % Remaining after 30 min w/NADPH [5] [%] | EC50 [6] [nM] | IC50 [7] [nM] | IC50 [8] [nM] | IC50 [9] [nM] | Liver Microsome Stability (Multiple Species): Human - % Remaining after 30 min w/NADPH [10] [%] | IC50 ([4]; mean) [nM] | IC50 ([7]; mean) [nM] | IC50 ([8]; mean) [nM] | IC50 ([9]; mean) [nM] | 24 hr Dox Inducible IL2FLGluc 293FRT/TO: IL2/PD1 [4] | 24 hr Dox Inducible TNFaFLGluc 293FRT/TO: TNF/PD1 [9] | 24 hr Dox Inducible IL2FLGluc 293FRT/TO: IL2/PD1 ([4]; '<=>' given where both are I.A.)
1 | O=C(O)CCn1cccc1C(=O)Nc1nc([C@H]2CCCN2c2ccccc2)cs1 [Compound C12] | 60.4 | 76.3 | > 25000 | – | 90.9 | > 25000 | – | – | – | 75.1 | > 25000 | > 25000 | > 25000 | > 25000 | – | – | 1
2 | O=C(Nc1nc(-c2cccc(-c3ccccn3)c2)cs1)c1cccn1Cc1ccnc(F)c1 [Compound A162, 1-((2-fluoropyridin-4-yl)methyl)-N-(4-(3-(pyridin-2-yl)phenyl)thiazol-2-yl)-1H-pyrrole-2-carboxamide] | 7.13 | 8.48 | > 25000 | 1770 | 0.25 | > 25000 | 758 | 1270 | > 25000 | 1.91 | – | – | – | – | 2.4 | >33.0 | –

Stronger by EC50 [3], values ahead:

Row | Liver Microsome Stability (Multiple Species): Mouse - % Remaining after 30 min w/NADPH [1] [%] | Liver Microsome Stability (Multiple Species): Rat - % Remaining after 30 min w/NADPH [2] [%] | EC50 [3] [nM] | IC50 [4] [nM] | Liver Microsome Stability (Multiple Species): Monkey - % Remaining after 30 min w/NADPH [5] [%] | EC50 [6] [nM] | IC50 [7] [nM] | IC50 [8] [nM] | IC50 [9] [nM] | Liver Microsome Stability (Multiple Species): Human - % Remaining after 30 min w/NADPH [10] [%] | IC50 ([4]; mean) [nM] | IC50 ([7]; mean) [nM] | IC50 ([8]; mean) [nM] | IC50 ([9]; mean) [nM] | SMILES | 24 hr Dox Inducible IL2FLGluc 293FRT/TO: IL2/PD1 [4] | 24 hr Dox Inducible TNFaFLGluc 293FRT/TO: TNF/PD1 [9] | 24 hr Dox Inducible IL2FLGluc 293FRT/TO: IL2/PD1 ([4]; '<=>' given where both are I.A.)
3 | 2.63 | 15.7 | 2410 | 186 | 0.44 | > 25000 | 59.6 | 86.7 | 1010 | 15.6 | – | – | – | – | CNC(=O)N1CCC(Oc2ccc(N3CCC[C@@H]3c3csc(NC(=O)c4cccn4Cc4ccnc(F)c4)n3)cc2)CC1 [Compound A136, (R)-4-(4-(2-(2-(1-((2-fluoropyridin-4-yl)methyl)-1H-pyrrole-2-carboxamido)thiazol-4-yl)pyrrolidin-1-yl)phenoxy)-N-methylpiperidine-1-carboxamide] | 3.1 | 16.9 | –
4 | 31.2 | 55.7 | 884 | 79.8 | 4.58 | > 25000 | 23.2 | 36.4 | 310 | 10.5 | – | – | – | – | O=C(Nc1nc([C@H]2CCCN2c2ccc(OC3CN(C(=O)CO)C3)cc2)cs1)c1cccn1Cc1ccnc(F)c1 [Compound A110, (R)-1-((2-fluoropyridin-4-yl)methyl)-N-(4-(1-(4-((1-(2-hydroxyacetyl)azetidin-3-yl)oxy)phenyl)pyrrolidin-2-yl)thiazol-2-yl)-1H-pyrrole-2-carboxamide] | 3.4 | 13.4 | –
5 | 0.28 | 1 | 34.2 | 4.21 | 0.12 | > 25000 | 1.49 | 4.2 | 40.5 | 1.42 | – | – | – | – | CC(=O)Nc1cc(F)c(N2CCC[C@@H]2c2csc(NC(=O)c3cccn3Cc3ccnc(F)c3)n2)c(F)c1 [Compound A96, (R)-N-(4-(1-(4-acetamido-2,6-difluorophenyl)pyrrolidin-2-yl)thiazol-2-yl)-1-((2-fluoropyridin-4-yl)methyl)-1H-pyrrole-2-carboxamide] | 2.8 | 27.2 | –
